Reference: patent US9511074B2, “Methods of treating disorders associated with protein polymerization” (UNIVERSITY OF PITTSBURGH—OF THE COMMONWEALTH SYSTEM OF …, priority 2009, dated 2016)

Columns and labels:
[1] = tested on: AT Saar in the HTO/Saar cell line; experiment: Levels of AT Saar variant in the HTO/Saar cell line; type: cell-based, human; details: FIG. 3D
From the text: (§1) Cell Lines The human epidermal HeLa cell line with doxycycline-regulated expression of ATZ (HTO/Z) has been described previously (1). HTO/M and HTO/Saar are HeLa cell lines with doxycycline-regulated expression of wild type AT and the AT Saar variant, respectively (1). A murine embryonic fibroblast cell line (MEF) with targeted disruption of Atg5 (2) was engineered for stable expression of ATZ using the previously described pRc/RSV-ATZ expression plasmid (3). A wild type MEF cell line was also engineered for stable expression of ATZ in the same way to serve as control. For experiments with CBZ, the inducible cell lines were cultured in the absence of doxycycline for at least 4 weeks for maximal expression of AT. The cells were then subcultured into separate monolayers in fresh complete growth medium and incubated for 48 hours in the absence or presence of CBZ or rapamycin (RAP). CBZ or RAP were added to the growth medium. The duration of incubation with CBZ was determined to be optimal at 48 hours based on experiments in which the duration was varied from 12 to 72 hours. Doses of CBZ were based on previous studies of its effects in cell lines (5,6). […]
(§2) For immunoblot analysis to detect AT, GAPDH or LC3, cells were lysed in 50 mM Tris-HCl, 150 mM NaCl, 1% NP-40, pH 8.0. Protein levels were quantified using the BCA protein assay (Pierce Biotechnology, Rockford, Ill.). […]

[2] = tested on: BiP in the HTO/Z cell line; experiment: Steady state levels of BiP in the HTO/Z cell line (immunoblot); type: cell-based, human; details: FIG. 1D
From the text: as §1, §2

[3] = tested on: ATZ in Atg5 deficient cell line; experiment: ATZ levels in autophagy-deficient (Atg5-/-) MEF cell line; type: cell-based, murine; details: Atg5-deficient cells
From the text: as §1, §2

[4] = tested on: smooth muscle actin, collagen IA and TGFβ mRNA; experiment: Stellate cell activation markers in liver of PiZ mice by Q-PCR; type: in vivo, mouse
Description: Quantitative PCR (Q-PCR) Levels of mRNA from smooth muscle actin, collagen IA and TGFβ in liver of PiZ mice were determined by Q-PCR using primers from ABI and previous described conditions (19).

PiZ×IKKbDhep mouse = experiment: Hepatic hydroxyproline in PiZ×IKKbDhep mouse model; type: in vivo; details: FIG. 7
From the text: Transgenic Mice PiZ mice that have been bred into the C57/BL6 background have been described previously (1). For the second and third series of experiments with CBZ we used PiZ mice that were re-derived onto the FVB/N background for a move into a new animal facility. The transgene that was used to generate the PiZ mouse is a genomic fragment of DNA that contains the coding regions of the ATZ gene together with introns and ˜2 kilobases of upstream and downstream flanking regions (10). […] In this perspective it is not an exact phenocopy of the classical form of AT deficiency. In particular it cannot be a model for the loss-of-function mechanisms associated with the classical form of AT deficiency. […]
Histology Sections of liver tissue were stained with hematoxylin and eosin, PAS, PAS after diastase treatment, TUNEL, PCNA, Ki67 and Sirius Red using standard techniques (18). […] The number of inflammatory nodules, AT-containing globules and autophagosomes were each quantified blindly by counting cells in 6 microscopic fields of 10 different sections for each liver. The number of nuclei, as determined by Hoechst staining, was used to exclude the possibility that different numbers of cells were counted in liver sections from mice treated with CBZ as compared to controls. Hepatic hydroxyproline concentration was determined by a well-established protocol (20,21).

[5] = tested on: ATZ in the HTO/Z cell line; experiment: Steady state levels of ATZ in the HTO/Z cell line (immunoblot of insoluble and soluble fractions); type: cell-based, human; details: HTO/Z cells
From the text: Cell Lines The human epidermal HeLa cell line with doxycycline-regulated expression of ATZ (HTO/Z) has been described previously (1). HTO/M and HTO/Saar are HeLa cell lines with doxycycline-regulated expression of wild type AT and the AT Saar variant, respectively (1). A murine embryonic fibroblast cell line (MEF) with targeted disruption of Atg5 (2) was engineered for stable expression of ATZ using the previously described pRc/RSV-ATZ expression plasmid (3). A wild type MEF cell line was also engineered for stable expression of ATZ in the same way to serve as control. For experiments with CBZ, the inducible cell lines were cultured in the absence of doxycycline for at least 4 weeks for maximal expression of AT. The cells were then subcultured into separate monolayers in fresh complete growth medium and incubated for 48 hours in the absence or presence of CBZ or rapamycin (RAP). CBZ or RAP were added to the growth medium. The duration of incubation with CBZ was determined to be optimal at 48 hours based on experiments in which the duration was varied from 12 to 72 hours. Doses of CBZ were based on previous studies of its effects in cell lines (5,6). Doses of RAP were based on previous positive effects on autophagic disposal of polyglutamine-repeat proteins (7). After the incubation cells were homogenized and cell homogenates separated into insoluble and soluble fractions according to our previously established technique (8). Samples of 20 μgs each were subjected to immunoblot analysis for AT, BiP and GAPDH.
(§3) For immunoblot analysis to detect AT, GAPDH or LC3, cells were lysed in 50 mM Tris-HCl, 150 mM NaCl, 1% NP-40, pH 8.0. Protein levels were quantified using the BCA protein assay (Pierce Biotechnology, Rockford, Ill.). 10-50 μg samples were loaded onto 7.5% precast gels. PVDF membranes were blocked in TBS, 0.5% Tween 20 (TBST), 5% milk and then incubated with primary antibody in 5% milk TBST solution. Horseradish peroxidase anti-goat Ig or anti-mouse Ig (Jackson Labs, Bar Harbor, Me.) were used as secondary antibodies in TBST. Blots were visualized with Super Signal West Dura or West Femto from Pierce.

[6] = tested on: wild type AT in the HTO/M cell line; experiment: Steady state levels of wild type AT in the HTO/M cell line (immunoblot); type: cell-based, human; details: FIG. 1D
From the text: as §1, §2

LC3 = LC3 conversion in the HTO/Z cell line by immunoblot; type: cell-based, human; details: with or without lysosomal enzyme inhibitors
Description: For experiments in which proteasomal inhibitors were used, MG132 was used at 30 μM and lactacystin at 10 μM for the last 6 hours of the incubation with CBZ or control. Cells that were incubated with MG132 or lactacystin alone served as control to validate that the proteasome was inhibited. For investigation of LC3 conversion, lysosomal inhibitors (E64D and pepstatin A at 20 μg/ml) were added to the medium for the last 4 hours of the incubation with CBZ or control. […] If the number of separate experiments done in the cell line models is not specifically indicated in the text or figure legend, at least 3 separate experiments were done in each case.
as §3

[7] = 48 hours incubation, immunoblot

NC(=O)N1c2ccccc2C=Cc2ccccc21 [CBZ, 5H-dibenz [b,f]azepine-5-carboxamide]
levels of AT Saar (soluble fraction) [1]: degraded by CBZ in a manner almost identical to that of ATZ
BiP levels [2]: did not affect
levels of soluble ATZ [3]: decrease
collagen 1A level ([4]; not statistically significant): decreased
transforming growth factor b level ([4]; not statistically significant): decreased
smooth muscle actin level ([4]; reached statistical significance): decreased
hepatic hydroxyproline concentration (PiZ×IKKbDhep mouse): decrease
minimal effective dose on ATZ levels [5]: 3 µM
steady-state levels of ATZ, insoluble fraction [5, 7]: marked decrease
steady-state levels of ATZ, soluble fraction [5, 7]: marked decrease
wild-type AT levels [6]: did not affect
LC3-II to LC3-I ratio (LC3): increased in a dose-dependent manner
